Reference: patent US20240116985A1, “STAPLED PEPTIDES AND METHODS THEREOF” (priority 2020, published 2024)
Read-outs that look alike come from different tables or passages of the source.

Tests used:
CHI Log D procedure = assay type: physicochemical; conditions: for chromatographic logD: pH 7.4, CHI Log D; for CHI Log D: pH 7.4
[1] = target: T1, full-length beta-Catenin (Uniprot ID P35222) (Homo sapiens, UniProt P35222); assay: Fluorescence polarization IC50 (beta-catenin / 5FAM-TCF4 10-53 competition); assay type: binding
T1 construct: 10 nM full-length beta-Catenin (Uniprot ID P35222)
T1 sequence (P35222 1-781): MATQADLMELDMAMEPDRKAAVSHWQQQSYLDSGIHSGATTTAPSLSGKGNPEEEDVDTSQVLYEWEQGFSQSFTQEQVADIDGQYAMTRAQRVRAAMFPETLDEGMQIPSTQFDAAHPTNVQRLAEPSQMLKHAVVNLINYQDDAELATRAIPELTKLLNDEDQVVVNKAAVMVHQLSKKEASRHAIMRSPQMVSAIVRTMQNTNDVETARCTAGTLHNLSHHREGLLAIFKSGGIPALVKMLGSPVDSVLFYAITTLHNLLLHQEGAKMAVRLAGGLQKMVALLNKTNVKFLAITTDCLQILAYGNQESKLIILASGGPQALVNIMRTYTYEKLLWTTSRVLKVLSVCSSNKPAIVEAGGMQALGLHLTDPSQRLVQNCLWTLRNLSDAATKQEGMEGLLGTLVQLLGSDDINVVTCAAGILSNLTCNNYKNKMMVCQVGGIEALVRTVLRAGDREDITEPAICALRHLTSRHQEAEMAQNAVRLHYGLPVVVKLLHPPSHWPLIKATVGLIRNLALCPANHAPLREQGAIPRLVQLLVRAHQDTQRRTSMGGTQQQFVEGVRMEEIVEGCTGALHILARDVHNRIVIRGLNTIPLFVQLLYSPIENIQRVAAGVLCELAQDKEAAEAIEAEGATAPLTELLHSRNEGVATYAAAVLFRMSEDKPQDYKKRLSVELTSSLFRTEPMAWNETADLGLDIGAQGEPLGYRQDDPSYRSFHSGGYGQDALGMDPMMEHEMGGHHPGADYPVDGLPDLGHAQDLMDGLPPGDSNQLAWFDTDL

[2] = Table E2-1, read-out: beta-Catenin FP IC50
[3] = fluorescence polarization, read-out: beta-Catenin FP IC50

SMILES | chromatographic logD (CHI Log D procedure) | IC50 [1, 2] [nM] | IC50 [1, 3] [nM] | CHI Log D (CHI Log D procedure) | IC50 ([1]; read-out: FP EC50) [nM]
CC[C@@H](C)[C@@H](NC(=O)[C@H](CCC(N)=O)NC(=O)[C@H](Cc1csc2ccccc12)NC(=O)[C@H](Cc1ccccc1)NC(=O)[C@]1(C)CCCCCCC=CCCCC2(CCCC=CC[C@]3(CCCN3C(C)=O)C(=O)N[C@@H](CC(=O)O)C(=O)N[C@@H](CC(C)C)C(=O)N2)C(=O)N[C@@H](CC(=O)O)C(=O)N[C@@H](CCC(=O)O)C(=O)N[C@@H](C)C(=O)N[C@@H](C)C(=O)N[C@@H](Cc2ccccc2)C(=O)N[C@@H](CC(N)=O)C(=O)N1)C(N)=O (stereo partly drawn) [I-734, Ac-PL3-Asp-Leu-B5-Asp-Glu-Ala-Ala-Phe-Asn-S8-Phe-BztA-Gln-dIle-NH2] | – | – | 370 | 2.713 | 370
CC(=O)N1CCC[C@]12CC=CCCCC1(CCCC=CCCCCCC[C@@](C)(C(=O)N[C@@H](Cc3ccccc3)C(=O)N[C@@H](Cc3csc4ccccc34)C(=O)N[C@@H](Cc3c[nH]cn3)C(N)=O)NC(=O)[C@H](CCC(N)=O)NC(=O)[C@H](Cc3ccccc3)NC(=O)[C@H](C)NC(=O)[C@H](C)NC(=O)[C@H](CC(=O)O)NC(=O)[C@H](CC(=O)O)NC1=O)NC(=O)[C@H](CC(C)C)NC(=O)[C@H](CC(=O)O)NC2=O (stereo partly drawn) [I-560, Ac-PL3-Asp-Leu-B5-Asp-Asp-Ala-Ala-Phe-Gln-S8-Phe-BztA-His-NH2] | – | – | 81 | 2.391 | 81
CC(=O)N1CCC[C@]12CC=CCCCC1(CCCC=CCCCCCC[C@@](C)(C(=O)N[C@@H](Cc3cccc(F)c3)C(=O)N[C@@H](Cc3csc4ccccc34)C(=O)N[C@@H](CCC(N)=O)C(N)=O)NC(=O)[C@H](C(C)C)NC(=O)[C@H](Cc3ccccc3)NC(=O)[C@H](C)NC(=O)[C@H](C)NC(=O)[C@H](Cc3cn(C)cn3)NC(=O)[C@H](CC(=O)O)NC1=O)NC(=O)[C@H](C)NC(=O)[C@H](CC(=O)O)NC2=O (stereo partly drawn) [I-403, Ac-PL3-Asp-Ala-B5-Asp-1meH-Ala-Ala-Phe-Val-S8-3FF-BztA-Gln-NH2] | 2.87 | – | 2130 | – | –

Continued, values first:

chromatographic logD (CHI Log D procedure) | IC50 [1, 2] [nM] | IC50 [1, 3] [nM] | CHI Log D (CHI Log D procedure) | IC50 ([1]; read-out: FP EC50) [nM] | SMILES
2.5 | 5000 | – | – | – | CC(=O)N1CCC[C@]12CC=CCCCC1(CCCC=CCCCCCC[C@@](C)(C(=O)N[C@@H](Cc3ccccc3)C(=O)N[C@@H](Cc3c[nH]c4ccccc34)C(=O)N[C@@H](CCC(N)=O)C(N)=O)NC(=O)[C@H](C(C)C)NC(=O)[C@H](Cc3ccccc3)NC(=O)[C@H](C)NC(=O)[C@H](C)NC(=O)[C@H](Cc3ccccn3)NC(=O)[C@H](CC(=O)O)NC1=O)NC(=O)[C@H](C)NC(=O)[C@H](CC(=O)O)NC2=O (stereo partly drawn) [I-270, Ac-PL3-Asp-Ala-B5-Asp-2PyrA-Ala-Ala-Phe-Val-S8-Phe-Trp-Gln-NH2]
2.04 | – | 83.5 | – | – | CC(=O)N1CCC[C@]12CC=CCCCC1(CCCC=CCCCCCC[C@@](C)(C(=O)N[C@@H](Cc3ccccc3)C(=O)N[C@@H](Cc3csc4ccccc34)C(=O)N[C@@H](CCC(N)=O)C(N)=O)NC(=O)[C@H](CC(N)=O)NC(=O)[C@H](Cc3ccc(F)cc3)NC(=O)[C@H](C)NC(=O)[C@H](C)NC(=O)[C@H](CCC(=O)O)NC(=O)[C@H](CC(=O)O)NC1=O)NC(=O)[C@H](C)NC(=O)[C@H](CC(=O)O)NC2=O (stereo partly drawn) [I-455, Ac-PL3-Asp-Ala-B5-Asp-Glu-Ala-Ala-4FF-Asn-S8-Phe-BztA-Gln-NH2]
2.01 | 5000 | – | – | – | CC(=O)N1CCC[C@]12CC=CCCCC1(CCCC=CCCCCCC[C@@](C)(C(=O)N[C@@H](Cc3ccc(F)cc3)C(=O)N[C@@H](Cc3c[nH]c4ccccc34)C(=O)N[C@@H](CCC(N)=O)C(N)=O)NC(=O)[C@H](C(C)C)NC(=O)[C@H](Cc3ccccc3)NC(=O)[C@H](C)NC(=O)[C@H](C)NC(=O)[C@H](CC(=O)O)NC(=O)[C@H](CC(=O)O)NC1=O)NC(=O)[C@H](C)NC(=O)[C@H](CC(=O)O)NC2=O (stereo partly drawn) [I-261, Ac-PL3-Asp-Ala-B5-Asp-Asp-Ala-Ala-Phe-Val-S8-4FF-Trp-Gln-NH2]
